This is an account of results in publication PMC8626825 (Virology, 2021).

Structures are written as SMILES.

For data set [1], the system named is 3CLpro. Particulars: 2020, cited from earlier work.
Data set [2] relates to OC43. Particulars: for effect of co-treatment on IC50 of remdesivir against OC43-induced CPE: co-treatment with remdesivir, 5 μM lapatinib or 10 μM doramapimod.
Data set [3] concerns SARS-CoV-2. The experiment in a line: SARS-CoV-2-induced cytopathic effect in MRC5-ACE2 cells. Type of data set: cell-based.
The test system of data set [4] is SARS-CoV-2. The data set can be described thus: SARS-CoV-2 RNA accumulation in MRC5-ACE2 cells. Type of data set: cell-based, SARS-CoV-2 isolate Hong Kong/VM20001061/2020.
For data set [5], the system named is 3CLpro. To be noted: ref Ghahremanpour et al., 2020; cited from earlier work.
Data set [6] concerns SARS-CoV-2. Type of data set: cell-based.
For data set [7] the following is noted: cited from earlier work; for maximal accumulation in plasma: healthy patients given remdesivir, ref Jorgensen et al.; for maximal accumulation in plasma / concentration in bronchoalveolar aspirates: 2020; for concentration in bronchoalveolar aspirates: remdesivir treated COVID-19 patients, ref Pan et al.
The subject of data set [8] is SARS-CoV-2 N protein. The data set can be described thus: SARS-CoV-2 N protein accumulation in MRC5-ACE2 cells. Type of data set: cell-based.
Data set [9] has as its system SARS-CoV-2. Particulars: ref Dittmar et al., 2021; cited from earlier work.
In data set [10] the test system is SARS-CoV-2. Particulars: SOLIDARITY trial, ref Pan et al., 2020; cited from earlier work.
Data set [11] relates to OC43. The data set can be described thus: OC43 viral RNA accumulation in MRC5 cells. Particulars: MRC5, OC43, 24 hpi. Type of data set: cell-based, human betacoronavirus (OC43).
Data set [12] relates to OC43. Type of data set: cell-based, human betacoronavirus (OC43). Particulars: OC43, MRC5.
The mark [13] stands for this setting: lapatinib, human patients, ref Spector et al., 2015.

As for `CS(=O)(=O)CCNCc1ccc(-c2ccc3ncnc(Nc4ccc(OCc5cccc(F)c5)c(Cl)c4)c3c2)o1` [lapatinib], in data set [1] (pre-print, ref Drayman et al.), the “inhibition of 3CLpro activity” value was “could, in fact, inhibit the activity of 3CLpro”. The “inhibition of 3CLpro (experimental)” value in data set [1] (ref Ghahremanpour et al.) is reported as “did not inhibit 3CLpro”. Moreover, the “effect of co-treatment on IC50 of remdesivir against OC43-induced CPE” value in data set [2] is on record as “reduced the IC50 of remdesivir into the sub-μM range”. Besides, the “SARS-CoV-2-induced CPE” value in data set [3] was “blocked SARS-CoV-2-induced CPE”. For the same compound, in [4], the “SARS-CoV-2 RNA accumulation” value is “dramatic reduction in viral RNA accumulation”, the “dose of remdesivir required to abolish SARS-CoV-2 RNA accumulation” value is recorded as “dramatically reduce the dose of remdesivir required” and the “inhibition of SARS-CoV-2 RNA replication” value was “over 50,000 fold”. Besides, in data set [5], the “in silico molecular docking result” value is “putative inhibitor of the SARS-CoV-2 protease, 3CLpro”. Further, the “dose of remdesivir required to abolish production of infectious virions” value in data set [6] is reported as “dramatically reduce the dose of remdesivir required”. For the same compound, in data set [7] (setting [13]), the “concentration in tissue samples” value is 8000 to 12000 nM and the “plasma concentration in human patients” value is 1000 to 3000 nM. In addition, the “SARS-CoV-2 N protein accumulation” value in [8] is given as “completely prevented SARS-CoV-2 N protein accumulation”.
With `CCN(CCO)CCCC(C)Nc1ccnc2cc(Cl)ccc12` (stereo not drawn) [hydroxychloroquine], the “activity against SARS-CoV-2 in human lung epithelial cell lines” value in [9] is listed as “ineffective”. The clinical effectiveness entry in data set [10] is given as “not clinically effective”.
Turning to `CCC(CC)COC(=O)[C@H](C)N[P@](=O)(OC[C@H]1O[C@@](C#N)(c2ccc3c(N)ncnn23)[C@H](O)[C@@H]1O)Oc1ccccc1` [remdesivir], in data set [2] (remdesivir alone, MRC5), the “IC50 of remdesivir against OC43-induced CPE” value is recorded as “in the μM range”. In addition, the clinical effectiveness result in data set [10] is on record as “not clinically effective”. Moreover, in [7], the “maximal accumulation in plasma” value is 4 to 9 µM and the “concentration in bronchoalveolar aspirates” value was “not detectable”.
Regarding `C=CCNC1=C2C[C@@H](C)C[C@H](OC)[C@H](O)[C@@H](C)/C=C(\C)[C@H](OC(N)=O)[C@@H](OC)/C=C\C=C(/C)C(=O)NC(=CC1=O)C2=O` [17-AAG], in [4], the “SARS-CoV-2 RNA accumulation” value is given as “only minimally reduced SARS-CoV-2 RNA accumulation”. For the same compound, in [11], the “dose blocking OC43 viral RNA accumulation relative to remdesivir (fold less)” value was approximately 10 fold.
Turning to `N#C[C@@]1(c2ccc3c(N)ncnn23)O[C@H](CO)[C@@H](O)[C@H]1O` [GS-441524], in data set [7], the “maximal accumulation in plasma” value is on record as “about 0.5 μM” and the “concentration in bronchoalveolar aspirates” value is reported as approximately 15 nM.
On to `C#Cc1cccc(Nc2ncnc3cc(OCCOC)c(OCCOC)cc23)c1` [erlotinib], for which, in data set [12], the “identified as hit in the screen” value is given as “not identified”.
The same measure, in the same setting: in the case of `COc1cc2ncnc(Nc3ccc(F)c(Cl)c3)c2cc1OCCCN1CCOCC1` [gefitinib] it was “not identified”.
Consider `Cc1ccc(-n2nc(C(C)(C)C)cc2NC(=O)Nc2ccc(OCCN3CCOCC3)c3ccccc23)cc1` [doramapimod], for which the “effect of co-treatment on IC50 of remdesivir against OC43-induced CPE” value in data set [2] is “reduced the IC50 of remdesivir into the sub-μM range”. In data set [3], the “SARS-CoV-2-induced CPE” value was “blocked SARS-CoV-2-induced CPE”. Besides, in data set [4], the “SARS-CoV-2 RNA accumulation” value was “able to block SARS-CoV-2 RNA accumulation at a low μM concentration” and the “dose of remdesivir required to abolish SARS-CoV-2 RNA accumulation” value is listed as “dramatically reduce the dose of remdesivir required”. The “dose of remdesivir required to abolish production of infectious virions” value in [6] is “dramatically reduce the dose of remdesivir required”. In addition, the “SARS-CoV-2 N protein accumulation” value in [8] is listed as “completely prevented SARS-CoV-2 N protein accumulation”.
